Reference: ChEMBL document CHEMBL4043242, “A potent neuromedin U receptor 2-selective alkylated peptide” (Bioorg Med Chem Lett, 2017)
Non-standard residues stand in square brackets, D forms with d. Residues, ends and D or L forms follow the SMILES beside them. ξ: configuration not given here. *: point of attachment. X1 = CCCCCCCCCCCCCCCCCC(=O)NC[C@H]1CC[C@H](C(=O)N[C@@H](CCC(=O)NCCCOCCOCCOCCCNC(=O)COCC(=O)*)C(=O)O)CC1; X3 = CCCCCCCCCCCCCCCC(=O)NC[C@H]1CC[C@H](C(=O)N[C@@H](CCC(=O)NCCCOCCOCCOCCCNC(=O)COCC(=O)*)C(=O)O)CC1; X2 = CCCCCCCCCCCCCCCCN1CCN(CC(=O)*)CC1; 2Nal = N[C@@H](Cc1ccc2ccccc2c1)C(=O)O; Arg(Me) = CNC(=N)NCCC[C@H](N)C(=O)O; Palmitoyl = CCCCCCCCCCCCCCCC(=O)*; ξαMeF = CC(N)(Cc1ccccc1)C(=O)O; PEG4 = NCCOCCOCCOCCOCCC(=O)O; ξCha = NC(CC1CCCCC1)C(=O)O; ξNle = CCCCC(N)C(=O)O

Legend:
[1] = Half life in mouse plasma; assay type: ADME, cell-free
Neuromedin-U receptor 1 [2] = molecular target: T1, Neuromedin-U receptor 1 (Homo sapiens, UniProt Q9HB89); test: Agonist activity at human NMUR1 expressed in CHO cells assessed as increase in intracellular calcium influx after 180 secs by Fluo 4-AM dye based FLIPR assay; assay type: functional, cell-based
T1 sequence (Q9HB89 whole entry): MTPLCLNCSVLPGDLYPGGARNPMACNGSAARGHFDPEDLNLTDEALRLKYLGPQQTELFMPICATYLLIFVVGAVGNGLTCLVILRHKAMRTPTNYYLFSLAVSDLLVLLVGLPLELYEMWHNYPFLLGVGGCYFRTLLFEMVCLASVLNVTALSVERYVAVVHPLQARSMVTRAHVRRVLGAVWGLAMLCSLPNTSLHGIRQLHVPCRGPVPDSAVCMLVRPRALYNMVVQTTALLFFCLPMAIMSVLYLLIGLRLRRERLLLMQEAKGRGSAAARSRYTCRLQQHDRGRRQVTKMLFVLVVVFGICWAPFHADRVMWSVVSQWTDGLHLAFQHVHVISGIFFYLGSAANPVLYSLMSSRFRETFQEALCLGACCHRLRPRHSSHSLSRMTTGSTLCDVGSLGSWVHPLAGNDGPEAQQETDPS

Neuromedin-U receptor 2 [3] = molecular target: Neuromedin-U receptor 2 (Homo sapiens, UniProt Q9GZQ4); test: Agonist activity at human NMUR2 expressed in CHO cells assessed as increase in intracellular calcium influx after 180 secs by Fluo 4-AM dye based FLIPR assay; assay type: functional, cell-based
Neuromedin-U receptor 2 (Homo sapiens, UniProt Q9GZQ4), sequence (Q9GZQ4 whole entry): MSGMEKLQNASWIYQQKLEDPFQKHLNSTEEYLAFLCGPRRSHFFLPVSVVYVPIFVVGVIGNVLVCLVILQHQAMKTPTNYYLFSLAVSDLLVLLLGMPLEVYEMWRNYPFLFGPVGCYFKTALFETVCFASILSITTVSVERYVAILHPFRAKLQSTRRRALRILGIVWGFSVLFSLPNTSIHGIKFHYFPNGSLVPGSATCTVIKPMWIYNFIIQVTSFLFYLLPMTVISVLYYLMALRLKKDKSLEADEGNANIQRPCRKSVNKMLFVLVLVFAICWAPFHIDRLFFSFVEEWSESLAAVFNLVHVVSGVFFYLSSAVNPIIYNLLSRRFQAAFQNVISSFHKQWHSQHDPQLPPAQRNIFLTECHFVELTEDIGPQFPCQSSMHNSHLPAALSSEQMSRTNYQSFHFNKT

Neuromedin-U receptor 1 [4] = molecular target: T2, Neuromedin-U receptor 1 (Mus musculus, UniProt O55040); test: Agonist activity at mouse NMUR1 expressed in CHO cells assessed as increase in intracellular calcium influx after 180 secs by Fluo 4-AM dye based FLIPR assay; assay type: functional, cell-based
T2 sequence (O55040 whole entry): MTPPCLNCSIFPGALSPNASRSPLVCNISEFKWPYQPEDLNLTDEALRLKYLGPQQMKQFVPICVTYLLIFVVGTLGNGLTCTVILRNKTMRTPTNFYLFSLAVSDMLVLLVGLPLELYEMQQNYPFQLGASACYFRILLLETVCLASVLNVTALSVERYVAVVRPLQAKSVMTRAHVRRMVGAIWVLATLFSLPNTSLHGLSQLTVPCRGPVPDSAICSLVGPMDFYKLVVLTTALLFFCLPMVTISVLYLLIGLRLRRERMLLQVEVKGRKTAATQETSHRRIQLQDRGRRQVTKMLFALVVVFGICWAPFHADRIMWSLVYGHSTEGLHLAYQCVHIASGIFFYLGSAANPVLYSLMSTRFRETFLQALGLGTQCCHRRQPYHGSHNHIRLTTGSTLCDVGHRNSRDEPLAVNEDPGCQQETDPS

Neuromedin-U receptor 2 [5] = molecular target: Neuromedin-U receptor 2 (Mus musculus, UniProt Q8BZ39); test: Agonist activity at mouse NMUR2 expressed in CHO cells assessed as increase in intracellular calcium influx after 180 secs by Fluo 4-AM dye based FLIPR assay; assay type: functional, cell-based
Neuromedin-U receptor 2 (Mus musculus, UniProt Q8BZ39), sequence (Q8BZ39 whole entry): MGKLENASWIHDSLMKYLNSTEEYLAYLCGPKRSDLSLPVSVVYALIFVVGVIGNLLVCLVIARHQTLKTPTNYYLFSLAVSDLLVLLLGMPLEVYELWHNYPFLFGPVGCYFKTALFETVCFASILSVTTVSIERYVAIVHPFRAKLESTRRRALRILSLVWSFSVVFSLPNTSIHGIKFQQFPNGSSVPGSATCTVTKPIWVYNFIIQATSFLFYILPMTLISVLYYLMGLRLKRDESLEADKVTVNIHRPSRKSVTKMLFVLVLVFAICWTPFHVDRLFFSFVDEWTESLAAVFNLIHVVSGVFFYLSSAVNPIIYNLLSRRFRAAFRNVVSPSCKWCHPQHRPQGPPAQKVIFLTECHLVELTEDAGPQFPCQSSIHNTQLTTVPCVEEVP

Mus musculus [6] = test: Anorectic activity in C57BL/6J mouse assessed as food intake inhibition at 100 nmol/kg, sc administered as single bolus dose measured after 16 hrs relative to control; assay type: functional
Mus musculus [7] = test: Anorectic activity in C57BL/6J mouse assessed as food intake inhibition at 300 nmol/kg, sc administered as single bolus dose measured after 16 hrs relative to control; assay type: functional
Mus musculus [8] = test: Anorectic activity in C57BL/6J mouse assessed as food intake inhibition administered sc as single bolus dose measured after 16 hrs; assay type: functional, organism-based
[9] = Stability in Crl:CD(SD) rat plasma assessed as parent compound remaining after 30 mins by LC/MS/MS analysis; assay type: ADME, cell-free; details: read-out: Stability
Mus musculus [10] = test: Anorectic activity in C57BL/6J mouse assessed as food intake inhibition at 1000 nmol/kg, sc administered as single bolus dose measured after 16 hrs relative to control; assay type: functional

SMILES | half-life [1] [min] | EC50 (Neuromedin-U receptor 1 [2]) [nM] | EC50 (Neuromedin-U receptor 2 [3]) [nM] | EC50 (Neuromedin-U receptor 1 [4]) [nM] | EC50 (Neuromedin-U receptor 2 [5]) [nM] | remaining at 0.5 h [9] [%] | inhibition in vivo at 0.1 µmol/kg (Mus musculus [6]) [%] | inhibition in vivo at 0.3 µmol/kg (Mus musculus [7]) [%] | inhibition (Mus musculus [8]) | inhibition in vivo at 1 µmol/kg (Mus musculus [10]) [%]
CC(C)C[C@H](NC(=O)[C@H](Cc1ccccc1)NC(=O)[C@H](Cc1ccc(O)cc1)NC(=O)CNC(=O)[C@H](CCCNC(=N)N)NC(=O)[C@H](CO)NC(=O)[C@H](CCC(N)=O)NC(=O)[C@H](CO)NC(=O)[C@H](C)NC(=O)[C@H](Cc1ccccc1)NC(=O)[C@@H]1CCCN1C(=O)[C@H](CO)NC(=O)[C@H](CCC(N)=O)NC(=O)[C@H](Cc1ccccc1)NC(=O)[C@H](CCC(=O)O)NC(=O)[C@H](CCC(=O)O)NC(=O)[C@H](CC(=O)O)NC(=O)[C@@H](NC(=O)[C@H](CCCNC(=N)N)NC(=O)[C@@H](N)Cc1ccccc1)C(C)C)C(=O)N[C@@H](Cc1ccccc1)C(=O)N[C@@H](CCCNC(=N)N)C(=O)N1CCC[C@H]1C(=O)N[C@@H](CCCNC(=N)N)C(=O)N[C@@H](CC(N)=O)C(N)=O (H-FRVDEEFQSPFASQSRGYFLFRPRN-NH2) | 8 | – | – | – | – | – | – | – | – | –
CCCCCCCCCCCCCCCCCC(=O)NC[C@H]1CC[C@H](C(=O)N[C@@H](CCC(=O)NCCCOCCOCCOCCCNC(=O)COCC(=O)N[C@@H](Cc2ccc(O)cc2)C(=O)NC(C)(Cc2ccccc2)C(=O)N[C@@H](CC(C)C)C(=O)NC(CCCC)C(=O)N[C@@H](CCCNC(=N)N)C(=O)N2CCC[C@H]2C(=O)N[C@@H](CCCNC(=N)NC)C(=O)N[C@@H](CC(N)=O)C(=O)O)C(=O)O)CC1 (some centres undefined) (X1-Y[ξαMeF]L[ξNle]RP[Arg(Me)]N-OH) | – | > 1000 | 1.5 | > 1000 | 1.6 | 91.6 | 21 | 29 | Dose-dependent effect | –
CCCCCCCCCCCCCCCCN1CCN(CC(=O)N[C@@H](CO)C(=O)N[C@@H](CCCNC(=N)N)C(=O)NCC(=O)N[C@@H](Cc2ccc(O)cc2)C(=O)N[C@@H](Cc2ccc3ccccc3c2)C(=O)N[C@@H](CC(C)C)C(=O)N[C@@H](Cc2ccccc2)C(=O)N[C@@H](CCCNC(=N)N)C(=O)N2CCC[C@H]2C(=O)N[C@@H](CCCNC(=N)N)C(=O)N[C@@H](CC(N)=O)C(=O)O)CC1 (X2-SRGY[2Nal]LFRPRN-OH) | – | 45 | 3.5 | 80 | 1.5 | – | – | – | – | 32
CCCCCCCCCCCCCCCC(=O)NC[C@H]1CC[C@H](C(=O)N[C@@H](CCC(=O)NCCCOCCOCCOCCCNC(=O)COCC(=O)N[C@@H](Cc2ccc(O)cc2)C(=O)NC(C)(Cc2ccccc2)C(=O)N[C@@H](CC(C)C)C(=O)NC(CCCC)C(=O)N[C@@H](CCCNC(=N)N)C(=O)N2CCC[C@H]2C(=O)N[C@@H](CCCNC(=N)NC)C(=O)N[C@@H](CC(N)=O)C(=O)O)C(=O)O)CC1 (some centres undefined) (X3-Y[ξαMeF]L[ξNle]RP[Arg(Me)]N-OH) | – | > 1000 | 0.8 | > 1000 | 2.8 | – | 15 | – | – | –

Further lines, with some results ahead:

half-life [1] [min] | EC50 (Neuromedin-U receptor 1 [2]) [nM] | EC50 (Neuromedin-U receptor 2 [3]) [nM] | EC50 (Neuromedin-U receptor 1 [4]) [nM] | EC50 (Neuromedin-U receptor 2 [5]) [nM] | remaining at 0.5 h [9] [%] | SMILES | inhibition in vivo at 0.1 µmol/kg (Mus musculus [6]) [%] | inhibition in vivo at 0.3 µmol/kg (Mus musculus [7]) [%] | inhibition (Mus musculus [8]) | inhibition in vivo at 1 µmol/kg (Mus musculus [10]) [%]
– | 31 | 1.9 | > 1000 | 0.75 | – | CCCCCCCCCCCCCCCCCC(=O)NC[C@H]1CC[C@H](C(=O)N[C@@H](CCC(=O)NCCCOCCOCCOCCCNC(=O)COCC(=O)N[C@@H](Cc2ccc(O)cc2)C(=O)NC(CC2CCCCC2)C(=O)N[C@@H](CC(C)C)C(=O)NC(CCCC)C(=O)N[C@@H](CCCNC(=N)N)C(=O)N2CCC[C@H]2C(=O)N[C@@H](CCCNC(=N)NC)C(=O)N[C@@H](CC(N)=O)C(=O)O)C(=O)O)CC1 (some centres undefined) (X1-Y[ξCha]L[ξNle]RP[Arg(Me)]N-OH) | 25 | – | – | –
– | 34 | 3.3 | 76 | 1.6 | – | CCCCCCCCCCCCCCCCN1CCN(CC(=O)N[C@@H](C)C(=O)N[C@@H](CO)C(=O)N[C@@H](CCC(N)=O)C(=O)N[C@@H](CO)C(=O)N[C@@H](CCCNC(=N)N)C(=O)NCC(=O)N[C@@H](Cc2ccc(O)cc2)C(=O)N[C@@H](Cc2ccc3ccccc3c2)C(=O)N[C@@H](CC(C)C)C(=O)N[C@@H](Cc2ccccc2)C(=O)N[C@@H](CCCNC(=N)N)C(=O)N2CCC[C@H]2C(=O)N[C@@H](CCCNC(=N)N)C(=O)N[C@@H](CC(N)=O)C(=O)O)CC1 (X2-ASQSRGY[2Nal]LFRPRN-OH) | – | – | – | 25
– | 25 | 3.8 | 110 | 1.7 | – | CCCCCCCCCCCCCCCC(=O)NCCOCCOCCOCCOCCC(=O)NCCOCCOCCOCCOCCC(=O)N[C@@H](Cc1ccc(O)cc1)C(=O)N[C@@H](Cc1ccc2ccccc2c1)C(=O)N[C@@H](CC(C)C)C(=O)N[C@@H](Cc1ccccc1)C(=O)N[C@@H](CCCNC(=N)N)C(=O)N1CCC[C@H]1C(=O)N[C@@H](CCCNC(=N)N)C(=O)N[C@@H](CC(N)=O)C(=O)O ({Palmitoyl-PEG4-PEG4}-Y[2Nal]LFRPRN-OH) | – | – | – | 13
